# *1 amine or outer side, *2 acyl side, *3 side chain or, on linkers, in order; H or OH if unused. Where a SMILES comes first, the peptide text is derived from it. The star is where a group is joined. X7 = O=C(OC[C@@H](COS(=O)(=O)O)OS(=O)(=O)O)*; X6 = O=C(OC[C@H](COS(=O)(=O)O)OS(=O)(=O)O)*; X12 = O=S(=O)(O)OC[C@H](CN*)OS(=O)(=O)O; X2 = O=S(=O)(O)OC[C@@H](CN*)OS(=O)(=O)O; NH(3-hydroxypropyl) = OCCCN*; X3 = O=C(OCCCOS(=O)(=O)O)*; X10 = O=C(OC[C@@H](O)CO)*; X11 = O=C(OC[C@H](O)CO)*; X9 = O=S(=O)(O)OCCCCN*; X5 = O=S(=O)(O)OCCCN*; CO = O=C([*:1])[*:2]; NH(CH2)4OH = OCCCCN*; X14 = OC[C@H](O)CN*; X4 = OC[C@@H](O)CN*; X13 = O=C(OCCCO)*
# What was measured:
# [1] = biological target: Amyloid-beta precursor protein (Homo sapiens) (UniProt P05067); assay: Inhibition of amyloid beta (1 to 42) aggregation in HBP assessed as beta sheet formation at 1:20 protein to compound ratio after 48 hrs by Th-T fluorescence assay relative to control; set-up: scale not given: the % may be the effect or the level left
# Sequence of Amyloid-beta precursor protein (Homo sapiens) (P05067 whole entry): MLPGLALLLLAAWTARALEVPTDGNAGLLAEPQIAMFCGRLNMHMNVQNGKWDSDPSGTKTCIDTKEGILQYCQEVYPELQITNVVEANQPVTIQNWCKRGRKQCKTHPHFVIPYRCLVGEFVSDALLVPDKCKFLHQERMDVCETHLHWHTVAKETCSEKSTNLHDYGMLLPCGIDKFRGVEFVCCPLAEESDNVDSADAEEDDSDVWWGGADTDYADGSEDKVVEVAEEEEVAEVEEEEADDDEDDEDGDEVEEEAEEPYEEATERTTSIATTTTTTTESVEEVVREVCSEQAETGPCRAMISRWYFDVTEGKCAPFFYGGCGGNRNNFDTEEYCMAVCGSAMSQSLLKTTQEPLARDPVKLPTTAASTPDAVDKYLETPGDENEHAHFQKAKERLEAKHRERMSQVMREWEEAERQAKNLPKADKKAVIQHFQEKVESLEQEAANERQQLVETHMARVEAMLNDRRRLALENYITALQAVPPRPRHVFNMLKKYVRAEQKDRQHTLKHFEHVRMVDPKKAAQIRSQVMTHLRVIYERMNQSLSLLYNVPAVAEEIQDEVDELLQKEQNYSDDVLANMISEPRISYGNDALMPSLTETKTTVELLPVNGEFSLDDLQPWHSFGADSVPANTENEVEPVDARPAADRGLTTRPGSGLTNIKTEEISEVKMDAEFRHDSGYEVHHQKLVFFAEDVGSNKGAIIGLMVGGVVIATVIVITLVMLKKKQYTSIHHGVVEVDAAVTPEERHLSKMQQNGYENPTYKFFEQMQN
# [2] = Cytotoxicity against HBP assessed as cell death at 50 uM after 6 days by fluorescence assay; conditions: human, 144 h
# [3] = biological target: Amyloid-beta precursor protein (Homo sapiens) (UniProt P05067); assay: Inhibition of amyloid beta (1 to 42)-mediated cytotoxicity in HBP assessed as cell death at 1:5 protein to compound ratio after 6 days by fluorescence assay relative to control; set-up: scale not given: the % may be the effect or the level left
# [4] = biological target: Amyloid-beta precursor protein (Homo sapiens) (UniProt P05067); assay: Inhibition of monomeric amyloid beta (unknown origin)-mediated cytotoxicity at 1:5 protein to compound ratio by cell-based assay relative to control; conditions: concentration not given here
# [5] = biological target: Amyloid-beta precursor protein (Homo sapiens) (UniProt P05067); assay: Inhibition of monomeric amyloid beta (unknown origin) aggregation at 1:20 protein to compound ratio relative to control; conditions: concentration not given here
Activity [1] [%],inhibition [5] [%],Compound,Activity [2],Activity [3] [%],inhibition [4] [%]
76.4,–,CC(C)C[C@H](NC(=O)OCC(CO)CO)C(=O)N1CCC[C@H]1C(=O)N[C@@H](Cc1ccccc1)C(=O)N[C@@H](Cc1ccccc1)C(=O)N[C@@H](CC(=O)O)C(=O)O,Non-toxic,81.1,–
87.9,–,CC(C)C[C@H](NC(=O)OCC(CO)CO)C(=O)N1CCC[C@@H]1C(=O)N[C@@H](Cc1ccccc1)C(=O)N[C@@H](Cc1ccccc1)C(=O)N[C@@H](CC(=O)O)C(=O)O,–,94.8,–
96.3,–,CC(C)C[C@H](NC(=O)OC[C@@H](COS(=O)(=O)O)OS(=O)(=O)O)C(=O)N1CCC[C@H]1C(=O)N[C@@H](Cc1ccccc1)C(=O)N[C@@H](Cc1ccccc1)C(=O)N[C@@H](CC(=O)O)C(N)=O (X7-LPFFD-NH2),–,95.9,–
97,–,CC(C)C[C@H](NC(=O)OC[C@@H](O)CO)C(=O)N1CCC[C@H]1C(=O)N[C@@H](Cc1ccccc1)C(=O)N[C@@H](Cc1ccccc1)C(=O)N[C@@H](CC(=O)O)C(N)=O (X10-LPFFD-NH2),–,89.7,–
92.9,–,CC(C)C[C@H](NC(=O)OCCCO)C(=O)N1CCC[C@H]1C(=O)N[C@@H](Cc1ccccc1)C(=O)N[C@@H](Cc1ccccc1)C(=O)N[C@@H](CC(=O)O)C(N)=O (X13-LPFFD-NH2),–,93,–
82.7,–,CC(C)C[C@H](NC(=O)NCCCO)C(=O)N1CCC[C@H]1C(=O)N[C@@H](Cc1ccccc1)C(=O)N[C@@H](Cc1ccccc1)C(=O)N[C@@H](CC(=O)O)C(N)=O ({NH(3-hydroxypropyl)-CO}-LPFFD-NH2),–,96.1,–
83,–,CC(C)C[C@H](NC(=O)NCCCOS(=O)(=O)O)C(=O)N1CCC[C@H]1C(=O)N[C@@H](Cc1ccccc1)C(=O)N[C@@H](Cc1ccccc1)C(=O)N[C@@H](CC(=O)O)C(N)=O ({X5-CO}-LPFFD-NH2),–,95.9,–
127,–,CC(C)C[C@H](NC(=O)NC[C@@H](COS(=O)(=O)O)OS(=O)(=O)O)C(=O)N1CCC[C@H]1C(=O)N[C@@H](Cc1ccccc1)C(=O)N[C@@H](Cc1ccccc1)C(=O)N[C@@H](CC(=O)O)C(N)=O ({X12-CO}-LPFFD-NH2),–,92,–

# Further lines, the compound ahead of its results:
Compound,Activity [1] [%],inhibition [5] [%],Activity [2],Activity [3] [%],inhibition [4] [%]
CC(C)C[C@H](NC(=O)OCC(COS(=O)(=O)O)CS(=O)(=O)O)C(=O)N1CCC[C@@H]1C(=O)N[C@@H](Cc1ccccc1)C(=O)N[C@@H](Cc1ccccc1)C(=O)N[C@@H](CC(=O)O)C(=O)O (some centres undefined),94.7,–,–,93.8,–
CC(C)C[C@H](NC(=O)OCCCOS(=O)(=O)O)C(=O)N1CCC[C@H]1C(=O)N[C@@H](Cc1ccccc1)C(=O)N[C@@H](Cc1ccccc1)C(=O)N[C@@H](CC(=O)O)C(N)=O (X3-LPFFD-NH2),107,–,–,107,–
CC(C)C[C@H](NC(=O)OC[C@H](COS(=O)(=O)O)OS(=O)(=O)O)C(=O)N1CCC[C@H]1C(=O)N[C@@H](Cc1ccccc1)C(=O)N[C@@H](Cc1ccccc1)C(=O)N[C@@H](CC(=O)O)C(N)=O (X6-LPFFD-NH2),95.1,–,–,91.4,–
CC(C)C[C@H](NC(=O)OC[C@H](O)CO)C(=O)N1CCC[C@H]1C(=O)N[C@@H](Cc1ccccc1)C(=O)N[C@@H](Cc1ccccc1)C(=O)N[C@@H](CC(=O)O)C(N)=O (X11-LPFFD-NH2),100,–,–,91.6,–
CC(C)C[C@H](NC(=O)NCCCCO)C(=O)N1CCC[C@H]1C(=O)N[C@@H](Cc1ccccc1)C(=O)N[C@@H](Cc1ccccc1)C(=O)N[C@@H](CC(=O)O)C(N)=O ({NH(CH2)4OH-CO}-LPFFD-NH2),100,–,–,99.6,–
CC(C)C[C@H](NC(=O)NC[C@H](COS(=O)(=O)O)OS(=O)(=O)O)C(=O)N1CCC[C@H]1C(=O)N[C@@H](Cc1ccccc1)C(=O)N[C@@H](Cc1ccccc1)C(=O)N[C@@H](CC(=O)O)C(N)=O ({X2-CO}-LPFFD-NH2),120,–,–,92,–
CC(C)C[C@H](NC(=O)NC[C@H](O)CO)C(=O)N1CCC[C@H]1C(=O)N[C@@H](Cc1ccccc1)C(=O)N[C@@H](Cc1ccccc1)C(=O)N[C@@H](CC(=O)O)C(N)=O ({X4-CO}-LPFFD-NH2),98.7,–,–,92.5,–
CC(C)C[C@H](NC(=O)NCCCCOS(=O)(=O)O)C(=O)N1CCC[C@H]1C(=O)N[C@@H](Cc1ccccc1)C(=O)N[C@@H](Cc1ccccc1)C(=O)N[C@@H](CC(=O)O)C(N)=O ({X9-CO}-LPFFD-NH2),100,–,–,96.5,–
CC(C)C[C@H](NC(=O)NC[C@@H](O)CO)C(=O)N1CCC[C@H]1C(=O)N[C@@H](Cc1ccccc1)C(=O)N[C@@H](Cc1ccccc1)C(=O)N[C@@H](CC(=O)O)C(N)=O ({X14-CO}-LPFFD-NH2),98.7,–,–,96.6,–
Ac-LPFFD-NH2,51.9,50,–,51.8,50
